Measured values from patent US20230118795A1, “ARYL OR HETEROARYL PYRIDONE OR PYRIMIDINE DERIVATIVE, PREPARATION METHOD AND USE THEREOF” (SUZHOU ZELGEN BIOPHARMACEUTICALS CO., LTD., priority 2020, published 2023).

What follows are compounds tested on NCI-H358 (KRAS^G12C mutation) cell (assay: Cell assay of antiproliferative activity against NCI-H358 cell (Celltiter-Glo, 5 days)). Conditions: 5 days incubation.
Assay type: cell-based
Protocol: Cell Assay of Antiproliferative Activity of Compounds Against NCI-H358 (KRAS^G12C Mutation) Cell.
40 μL phosphate buffer was added to the outer wells of the 384 microplate, and 40 μL cell suspension to be tested was added to the other wells. Then the microplate was incubated in a carbon dioxide incubator overnight.
The compounds to be tested were gradiently diluted, each compound was performed 10 concentration gradients (diluted from 50 μM to 0.003 μM) and added 100 nL to the corresponding wells in the microplate. After addition, 40 μl of phosphate buffer was added to each well in rows A and P and columns 1 and 24, and then the microplate was incubated in a carbon dioxide incubator for 5 days.
20 μL of Promega Celltiter-Glo reagent was added to each well of the microplate, and then the luminescence signal was stabilized by oscillating at room temperature for 10 min. Then PekinElmer Envision multi-label analyzer was used to read.
Finally, GraphPad Prism software was used to calculate the IC50 value of the compound and the fitting curve was drawn.
Anti-proliferative activity of the compounds of the present invention against NCI-H358 (KRAS^G12C mutation) cell was shown in Table 1.

IC50	Structure (SMILES)
> 10 µM	C=CC(=O)N1CCN(c2nc(=O)n(-c3c(C(C)C)cccc3S(C)(=O)=O)c3nc(-c4c(Cl)ccc5cn[nH]c45)c(F)cc23)[C@@H](C)C1 [Example 75]
1 to 10 µM	C=CC(=O)N1CCN(c2nc(=O)n(-c3cccnc3S(C)(=O)=O)c3nc(-c4c(O)cccc4F)c(F)cc23)[C@@H](C)C1 [Example 88, 4-((S)-4-acryloyl-2-methylpiperazin-1-yl)-6-fluoro-7-(2-fluoro-6-hydroxyphenyl)-1-(2-(methylsulfonyl)pyridin-3-yl) pyridino [2,3-d] pyrimidin-2(1H)-one]
1 to 10 µM	C=CC(=O)N1CCN(c2nc(=O)n(-c3cnccc3S(C)(=O)=O)c3nc(-c4c(O)cccc4F)c(F)cc23)[C@@H](C)C1 [Example 89]
1 to 10 µM	C=CC(=O)N1CCN(c2nc(=O)n(-c3ccccc3S(C)(=O)=O)c3nc(-c4c(O)cccc4F)c(F)cc23)CC1CC#N (centres unmarked) [Example 90, 2-(1-acryloyl-4-(6-fluoro-7-(2-fluoro-6-hydroxyphenyl)-1-(2-(methylsulfonyl)phenyl)-2-oxo-1,2-dihydropyridino [2,3-d]pyrimidin-4-yl)piperazin-2-yl) acetonitrile]
1 to 10 µM	C=CC(=O)N1CCN(c2nc(=O)n(-c3c(C)cccc3S(C)(=O)=O)c3nc(-c4c(O)cccc4F)c(F)cc23)CC1CC#N (centres unmarked) [Example 91, 2-(1-acryloyl-4-(6-fluoro-7-(2-fluoro-6-hydroxyphenyl)-1-(2-methyl-6-(methylsulfonyl)phenyl)-2-oxo-1,2-dihydropyridino [2,3-d]pyrimidin-4-yl)piperazin-2-yl) acetonitrile]

Same assay, conditions: Homo sapiens, NCI-H358, 120 h, 5 days incubation

Structure (SMILES)	IC50
C=CC(=O)N1CCN(c2nc(=O)n(-c3c(C)cccc3S(C)(=O)=O)c3nc(-c4c(F)cccc4Cl)c(F)cc23)[C@@H](C)C1 [Example 59, 4-((S)-4-acryloyl-2-methylpiperazin-1-yl)-7-(2-chloro-6-fluorophenyl)-6-fluoro-1-(2-methyl-6-(methylsulfonyl)phenyl) pyridino [2,3-d] pyrimidin-2(1H)-one]	0.2 µM
C=CC(=O)N1CCN(c2nc(=O)n(-c3ccccc3S(C)(=O)=O)c3nc(-c4c(O)cccc4F)c(F)cc23)C(CC#N)C1 (centres unmarked) [Example 60, 2-(4-acryloyl-1-(6-fluoro-7-(2-fluoro-6-hydroxyphenyl)-1-(2-(methylsulfonyl)phenyl)-2-oxo-1,2-dihydropyridino [2,3-d]pyrimidin-4-yl)piperazin-2-yl) acetonitrile]	> 10 µM
C=CC(=O)N1CCN(c2nc(=O)n(-c3ccccc3S(C)(=O)=O)c3nc(-c4c(O)cccc4F)c(F)cc23)C(CC(N)=O)C1 (centres unmarked) [Example 61, 2-(4-acryloyl-1-(6-fluoro-7-(2-fluoro-6-hydroxyphenyl)-1-(2-(methylsulfonyl)phenyl)-2-oxo-1,2-dihydropyridino [2,3-d]pyrimidin-4-yl)piperazin-2-yl) acetamide]	> 10 µM
C=CC(=O)N1C[C@H](C)N(c2nc(=O)n(-c3c(C4CCC4)cccc3S(C)(=O)=O)c3nc(-c4c(O)cccc4F)c(F)cc23)C[C@H]1C [Example 63A]	0.37 µM
C=CC(=O)N1CCN(c2nc(=O)n(-c3c(C(C)C)cccc3S(C)(=O)=O)c3nc(-c4cc(C#N)ccc4Cl)c(F)cc23)[C@@H](C)C1 [Example 64, (S)-3-(4-(4-acryloyl-2-methylpiperazin-1-yl)-6-fluoro-1-(2-isopropyl-6-(methylsulfonyl)phenyl)-2-oxo-1,2-dihydropyridino[2,3-d]pyrimidin-7-yl)-4-chlorobenzonitrile]	0.12 µM
C=CC(=O)N1CCN(c2nc(=O)n(-c3c(C(C)C)cccc3S(C)(=O)=O)c3nc(-c4cccc(C#N)c4Cl)c(F)cc23)[C@@H](C)C1 [Example 65, (S)-3-(4-(4-acryloyl-2-methylpiperazin-1-yl)-6-fluoro-1-(2-isopropyl-6-(methylsulfonyl)phenyl)-2-oxo-1,2-dihydropyridino[2,3-d]pyrimidin-7-yl)-2-chlorobenzonitrile]	> 10 µM
C=CC(=O)N1CCN(c2nc(=O)n(-c3c(C(C)C)cccc3S(C)(=O)=O)c3nc(-c4ccc(C#N)cc4Cl)c(F)cc23)[C@@H](C)C1 [Example 66, (S)-4-(4-(4-acryloyl-2-methylpiperazin-1-yl)-6-fluoro-1-(2-isopropyl-6-(methylsulfonyl)phenyl)-2-oxo-1,2-dihydropyridino [2,3-d]pyrimidin-7-yl)-3-chlorobenzonitrile]	> 10 µM
C=CC(=O)N1CCN(c2nc(=O)n(-c3c(C(C)C)cccc3S(C)(=O)=O)c3nc(-c4c(Cl)cccc4C#N)c(F)cc23)[C@@H](C)C1 [Example 67]	> 10 µM
C=CC(=O)N1CCN(c2nc(=O)n(-c3c(C(C)C)cccc3S(C)(=O)=O)c3nc(-c4ccnn4C)c(F)cc23)[C@@H](C)C1 [Example 68, (S)-4-(4-acryloyl-2-methylpiperazin-1-yl)-6-fluoro-1-(2-isopropyl-6-(methylsulfonyl)phenyl)-7-(1-methyl-1H-pyrazol-5-yl) pyridino [2,3-d] pyrimidin-2(1H)-one]	2.2 µM
C=CC(=O)N1CCN(c2nc(=O)n(-c3c(C(C)C)cccc3S(C)(=O)=O)c3nc(-c4ccn[nH]4)c(F)cc23)[C@@H](C)C1 [Example 69, (S)-4-(4-acryloyl-2-methylpiperazin-1-yl)-6-fluoro-1-(2-isopropyl-6-(methylsulfonyl)phenyl)-7-(1H-pyrazol-5-yl) pyridino[2,3-d] pyrimidin-2(1H)-one]	> 10 µM
C=CC(=O)N1CCN(c2nc(=O)n(-c3c(C(C)C)cccc3S(C)(=O)=O)c3nc(-c4cncn4C)c(F)cc23)[C@@H](C)C1 [Example 70, (S)-4-(4-acryloyl-2-methylpiperazin-1-yl)-6-fluoro-1-(2-isopropyl-6-(methylsulfonyl)phenyl)-7-(1-methyl-1H-imidazol-5-yl) pyridino [2,3-d] pyrimidin-2 (1H)-one]	> 10 µM
C=CC(=O)N1CCN(c2nc(=O)n(-c3c(C(C)C)cccc3S(C)(=O)=O)c3nc(-c4ccc[nH]c4=O)c(F)cc23)[C@@H](C)C1 [Example 71, (S)-4-(4-acryloyl-2-methylpiperazin-1-yl)-6-fluoro-1-(2-isopropyl-6-(methylsulfonyl)phenyl)-7-(2-oxo-1,2-dihydropyridin-3-yl) pyridino[2,3-d] pyrimidin-2 (1H)-one]	> 10 µM
C=CC(=O)N1CCN(c2nc(=O)n(-c3c(C(C)C)cccc3S(C)(=O)=O)c3nc(-c4cccc(=O)[nH]4)c(F)cc23)[C@@H](C)C1 [Example 72, (S)-4-(4-acryloyl-2-methylpiperazin-1-yl)-6-fluoro-1-(2-isopropyl-6-(methylsulfonyl)phenyl)-7-(6-oxo-1,6-dihydropyridin-2-yl) pyridino[2,3-d] pyrimidin-2 (1H)-one]	> 10 µM
C=CC(=O)N1CCN(c2nc(=O)n(-c3c(C(C)C)cccc3S(C)(=O)=O)c3nc(-c4cccn(C)c4=O)c(F)cc23)[C@@H](C)C1 [Example 73, (S)-4-(4-acryloyl-2-methylpiperazin-1-yl)-6-fluoro-1-(2-isopropyl-6-(methylsulfonyl)phenyl)-7-(1-methyl-2-oxo-1,2-dihydropyridin-3-yl) pyridino[2,3-d] pyrimidin-2 (1H)-one]	> 10 µM

Other lines, results leading:

IC50	Structure (SMILES)
> 10 µM	C=CC(=O)N1CCN(c2nc(=O)n(-c3c(C(C)C)cccc3S(C)(=O)=O)c3nc(-c4cccc(=O)n4C)c(F)cc23)[C@@H](C)C1 [Example 74, (S)-4-(4-acryloyl-2-methylpiperazin-1-yl)-6-fluoro-1-(2-isopropyl-6-(methylsulfonyl)phenyl)-7-(1-methyl-6-oxo-1,6-dihydropyridin-2-yl) pyridino[2,3-d] pyrimidin-2 (1H)-one]
> 10 µM	C=CC(=O)N1CCN(c2nc(=O)n(-c3c(C(C)C)cccc3S(C)(=O)=O)c3nc(-c4c(C)ncn4C)c(F)cc23)[C@@H](C)C1 [Example 76, 4-((S)-4-acryloyl-methylpiperazin-1-yl)-7-(1,4-dimethyl-1H-imidazol-5-yl)-6-fluoro-1-(2-isopropyl-6-(methylsulfonyl)phenyl) pyridino [2,3-d] pyrimidin-2 (1H)-one]
> 10 µM	C=CC(=O)N1CCN(c2nc(=O)n(-c3c(C(C)C)cccc3S(C)(=O)=O)c3nc(-c4c(F)cccc4C(=O)OC)c(F)cc23)[C@@H](C)C1 [Example 77]
0.17 µM	C=CC(=O)N1C[C@H](C)N(c2nc(=O)n(-c3c(C(C)C)cccc3S(C)(=O)=O)c3nc(-c4c(O)cccc4F)c(F)cc23)C[C@H]1C [Example 78A]
< 1 µM	C=CC(=O)N1CCN(c2nc(=O)n(-c3ccccc3S(C)(=O)=O)c3nc(-c4c(O)cccc4F)c(F)cc23)[C@@H](C)C1 [Example 85, 4-((S)-4-acryloyl-2-methylpiperazin-1-yl)-6-fluoro-7-(2-fluoro-6-hydroxyphenyl)-1-(2-(methylsulfonyl)phenyl) pyridino[2,3-d] pyrimidin-2(1H)-one]
< 1 µM	C=CC(=O)N1CCN(c2nc(=O)n(-c3ccccc3S(=O)(=O)C(C)C)c3nc(-c4c(O)cccc4F)c(F)cc23)[C@@H](C)C1 [Example 86, 4-((S)-4-acryloyl-2-methylpiperazin-1-yl)-6-fluoro-7-(2-fluoro-6-hydroxyphenyl)-1-(2-(isopropylsulfonyl)phenyl) pyridino[2,3-d] pyrimidin-2(1H)-one]
< 0.1 µM	C=CC(=O)N1CCN(c2nc(=O)n(-c3c(C)cccc3S(C)(=O)=O)c3nc(-c4c(O)cccc4F)c(F)cc23)[C@@H](C)C1 [Example 87, 4-((S)-4-acryloyl-2-methylpiperazin-1-yl)-6-fluoro-7-(2-fluoro-6-hydroxyphenyl)-1-(2-methyl-6-(methylsulfonyl)phenyl) pyridino[2,3-d] pyrimidin-2(1H)-one]
